Our source for the IC50 values is ChEMBL document CHEMBL1126364, “A new class of leukotriene biosynthesis inhibitors: The discovery of MK0591” (Bioorg Med Chem Lett, 1992).

One may read the pIC50 as the IC50 on a negative log10 scale, so that one unit is a factor of ten. Low readings indicate a high IC50, high ones a low IC50.

pIC50: −log10 of the molar value.

Experiment [1] deals with T1, Arachidonate 5-lipoxygenase-activating protein (Homo sapiens, UniProt P20292).
T1 sequence (P20292 whole entry): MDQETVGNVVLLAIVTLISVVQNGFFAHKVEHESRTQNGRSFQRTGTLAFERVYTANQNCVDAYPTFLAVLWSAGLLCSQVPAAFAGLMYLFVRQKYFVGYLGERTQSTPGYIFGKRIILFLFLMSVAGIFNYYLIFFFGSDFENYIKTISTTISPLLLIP
The experiment is described as follows: The compound was tested for the inhibition of binding of [125I]- L- 691,831 binding to 5-lipoxygenase activating protein (FLAP).

The species named for experiment [2] is Homo sapiens. The experiment is described as follows: Leukotriene synthesis inhibition activity in the Human whole blood assay. The class given is functional, organism-based.
For experiment [3], the species on record is Homo sapiens. The experiment is described as follows: Leukotriene synthesis inhibition activity in the Human PMN assay. Type of experiment: functional, organism-based.
The target of experiment [4] is T1, Arachidonate 5-lipoxygenase-activating protein. The experiment is described as follows: The compound was tested for the inhibition of binding of [125I]- L- 691,831 binding to 5-lipoxygenase activating protein.

As to `CC(C)c1ccc2c(c1)c(SC(C)(C)C)c(CC(C)(C)C(=O)O)n2Cc1ccc(Cl)cc1`, the pIC50 in experiment [1] was 7.64; in experiment [2], 5.68; in experiment [3] (Homo sapiens), 8.52. `Cc1c(CC(C)(C)C(=O)O)n(Cc2ccc(Cl)cc2)c2ccc(OCc3ccc4ccccc4n3)cc12`: in experiment [3] (Homo sapiens), the pIC50 was 8.52. As for `O=C(O)CSC(CCCc1ccc(Cl)cc1)c1ccc(OCc2ccc3ccccc3n2)cc1` (stereo in doubt; 1), the pIC50 is 6.91 in experiment [1], below 4.66 in experiment [2] and 7.70 in experiment [3].

`c1ccc(COCC(OCc2ccccc2)c2ccc(OCc3ccc4ccccc4n3)cc2)cc1` (stereo not given) had a pIC50 in experiment [3] (Homo sapiens) of 7.52. As to `COc1ccc2c(c1)c(C)c(CC(C)(C)C(=O)O)n2Cc1ccc(Cl)cc1`, the pIC50 in experiment [3] (Homo sapiens) was 6.06.

On to `CC(C)(C)Sc1c(CC(C)(C)C(=O)O)n(Cc2ccc(Cl)cc2)c2ccc(OCc3ccc4ccccc4n3)cc12` [QUIFLAPON], for which the results for the pIC50 in experiment [4], in experiment [2] and in experiment [3] (Homo sapiens) were 8.70, 6.30 and 8.52, respectively. As to `O=C(O)CSC(CCCc1ccc(Cl)cc1)c1ccc(OCc2ccc3ccccc3n2)cc1` (single isomer, unassigned; (-)), in experiment [3], the pIC50 was 8.00. `O=C(O)CSC(CCCc1ccccc1)(CCc1ccccc1)c1ccc(OCc2ccc3ccccc3n2)cc1` (stereo not given) showed a negative logarithm of the IC50 (pIC50) in experiment [1] of 8.40. Consider `O=C(O)CSC(CCCc1ccc(Cl)cc1)c1ccc(OCc2ccc3ccccc3n2)cc1` (single isomer, unassigned; (+)), for which the pIC50 in experiment [3] was 8.30.
